Here are results for two compounds from paper PMC9216299, “Quercetin and luteolin are single-digit micromolar inhibitors of the SARS-CoV-2 RNA-dependent RNA polymerase” (Scientific Reports, 2022).

Values after ≈ are worked out from the molar mass of the structure shown. Where two headings read alike, the source gives them in different places. A value given as a limit tells only on which side of the number the result lay.

A short description of series [1]: In vitro plasma stability. The note with it: for stability in blood plasma (in words): mouse plasma, measured time span 120 min; for half-life at 2 µM: mouse, plasma.
For a further series, the target named is SARS-CoV-2 RdRp (Severe acute respiratory syndrome coronavirus 2, UniProt P0DTD1). Description: biochemical. As to conditions: for inhibition at 25 µM / inhibition at 100 µM: SARS-CoV-2 RdRp; for inhibition at 25 µM: compound at 25 µM, read-out: % inhib 25 µM; for inhibition at 100 µM: compound at 100 µM, read-out: % inhib 100 µM.
For series [2] the following is noted: 24 h, pH 7.4.
A further series can be described thus: in vitro. As to conditions: mouse, microsomes, pH 7.4.
The next series has as its system 3CL^pro. As to conditions: viral protease 3CLpro, cited from earlier work; for IC50: in vitro.
The next series has as its system NTPase/helicase. The note with it: cited from earlier work.
The nature of series [3]: Aqueous kinetic solubility in PBS pH 7.4. As to conditions: PBS neutral buffer pH 7.4, 25 °C, 24 h, target 250 µM, 2.5% DMSO.
The subject of the next series is M^pro. As to conditions: cited from earlier work.

Usually half-life stands for the time in which the quantity being followed falls by half. Lower therefore signals rapid decline. The term IC50 denotes the concentration that inhibits the measured activity by half. Consider `O=c1cc(-c2ccc(O)c(O)c2)oc2cc(O)cc(O)c12` [Luteolin, luteolin], for which, in series [1], the “stability in blood plasma (in words)” value is reported as “stable in the measured time span” and the half-life at 2 µM is > 120 min. Moreover, on SARS-CoV-2 RdRp, the IC50 is 4.6 ± 0.3 µM, the inhibition at 25 µM amounted to 89% and the inhibition at 100 µM turned out to be 100%. In addition, in series [2], the “kinetic solubility (Sk)” value amounted to 21 ± 4 µM (≈ 6.01 µg/mL). Moreover, the half-life at 4.6 µM in “in vitro” was > 60 min. Besides, in the series with 3CL^pro, the IC50 was 20 µM.

One may read the Ki as a measure of affinity in units of concentration, obtained from inhibition or displacement. Regarding `O=c1c(O)c(-c2ccc(O)c(O)c2)oc2cc(O)cc(O)c12` [Quercetin, quercetin], in series [1], the “stability in blood plasma (in words)” value is on record as “poorly stable” and the half-life at 2 µM came to 7 ± 2 min. In the series on NTPase/helicase, the “activity against SARS-CoV NTPase/helicase” value is “active”. Moreover, at SARS-CoV-2 RdRp, the inhibition at 25 µM was 81% and the inhibition at 100 µM was 100%. Moreover, the “kinetic solubility (Sk)” value in series [3] came out at 16 ± 5 µM (≈ 4.84 µg/mL). In “in vitro”, the half-life at 4.6 µM is > 60 min. In addition, in the series on 3CL^pro, the IC50 was 24 µM and the Ki was ~7 µM. The “activity against SARS-CoV Mpro” value in the series on M^pro is given as “active”.
